Data taken from ChEMBL document CHEMBL1157538, “Discovery of a potent, selective, and orally bioavailable c-Met inhibitor: 1-(2-hydroxy-2-methylpropyl)-N-(5-(7-methoxyquinolin-4-yloxy)pyridin-2-yl)-5-methyl-3-oxo-2-phenyl-2,3-dihydro-1H-pyrazole-4-carboxamide (AMG 458)” (J Med Chem, 2008).

Key:
[1] = Clearance in rat; assay type: ADME, organism-based; conditions: in vivo
[2] = Intrinsic clearance in BALB/c mouse liver microsome; assay type: ADME; conditions: liver microsomes
[3] = Oral bioavailability in rat; assay type: ADME, organism-based; conditions: in vivo
[4] = tested on: Mus musculus; experiment: Inhibition of HGF-mediated c-Met phosphorylation in BALB/c mouse liver at 30 mg/kg, po after 6 hrs; assay type: functional; design: scale not given: the % may be the effect or the level left
[5] = Intrinsic clearance in human liver microsome; assay type: ADME; conditions: liver microsomes
[6] = Intrinsic clearance in Sprague-Dawley rat liver microsome; assay type: ADME; conditions: liver microsomes
[7] = Half life in rat; assay type: ADME, organism-based; conditions: in vivo

## COc1ccc2c(Oc3ccc(NC(=O)c4c(C)n(C[C@@H](C)O)n(-c5ccccc5)c4=O)cc3F)ccnc2c1
[1]
  clearance: < 3.33 mL/min/kg
[2]
  microsomal CLint: < 45 µL/min/mg
[3]
  bioavailability: > 50%
[4]
  Activity: 98%
[5]
  microsomal CLint: < 55 µL/min/mg
[6]
  microsomal CLint: < 60 µL/min/mg
[7]
  half-life: 1.9 h
